Test results taken from patent publication US20160038435A1 (Teva Pharmaceutical Industries Ltd., priority 2013, published 2016).
≈ marks a conversion by molar mass, not a printed value. Where a name gives a salt, the structure may show the parent alone.

Experiments:
[1] = Concentration of saturated donor solutions applied onto the skin; type: physicochemical
[2] = Saturation solubilities in solvents; type: physicochemical
Method: Saturation solubilities were measured in solvents typically used for incorporating of the drug into the pressure sensitive adhesives (PSA). Additional solubilities were measured in water, Phosphate buffered saline (PBS) Buffer (acceptor medium for skin permeation) and three different donor medium. All solubilities were measured at room temperature.

[3] = system: genes related to antigen presentation; details: mainly via the NFkB pathway; cited from earlier work

CCN(C(=O)c1c(O)c2c(Cl)cccc2n(C)c1=O)c1ccccc1 [Laquinimod Sodium Salt, Laquinimod sodium]
c of saturated solution ([1]; EtOH/Dodecanol 95/5, saturated solution containing solid API, listed as Laquinimod-Na): 1.17 mg/mL | c of saturated solution ([1]; EtOH/Oleic acid 85/15, saturated solution containing solid API, listed as Laquinimod-Na): 4.30 mg/mL | c of saturated solution ([1]; Propylene glycol (PG)/water 8/2, saturated solution containing solid API, listed as Laquinimod-Na): 10.00 mg/mL

CCN(C(=O)c1c(O)c2c(Cl)cccc2n(C)c1=O)c1ccccc1 [Laquinimod free acid]
c of saturated solution ([1]; EtOH/Dodecanol 95/5, saturated solution containing solid API): 3.49 mg/mL | c of saturated solution ([1]; EtOH/Oleic acid 85/15, saturated solution containing solid API): 3.93 mg/mL | c of saturated solution ([1]; Propylene glycol (PG)/water 8/2, saturated solution containing solid API): 1.22 mg/mL | Solubility ([2]; 2-Propanol, room temperature): 1662 µg/mL (≈ 4.66 mM) | Solubility ([2]; Acetone, room temperature): 4884 µg/mL (≈ 13.7 mM) | Solubility ([2]; Ethanol, room temperature): 4098 µg/mL (≈ 11.5 mM) | Solubility ([2]; Ethanol/Dodecanol (95:5), room temperature): 4209 µg/mL (≈ 11.8 mM) | Solubility ([2]; Ethanol/Oleic acid (85:15), room temperature): 4785 µg/mL (≈ 13.4 mM) | Solubility ([2]; Ethylacetate, room temperature): 3909 µg/mL (≈ 11 mM) | Solubility ([2]; PBS pH 7.4, room temperature): 1296 µg/mL (≈ 3.63 mM) | Solubility ([2]; Propylenglycol/water (80:20), room temperature): 1281 µg/mL (≈ 3.59 mM) | Solubility ([2]; Water, room temperature): 24 µg/mL (≈ 0.0673 mM) | Solubility ([2]; n-Heptane, room temperature): 0.6 µg/mL (≈ 0.00168 mM)

CCN(C(=O)c1c(O)c2c(Cl)cccc2n(C)c1=O)c1ccccc1 [laquinimod]
effect on genes related to antigen presentation and inflammatory pathways [3]: induced suppression of genes related to antigen presentation and corresponding inflammatory pathways
